Laboratory results from ChEMBL document CHEMBL3885861, “Open TG-GATES”.

Organism: Rattus norvegicus
Assay: Open TG-GATES - Regimen: Daily Repeat
Type: toxicity, organism-based, Sprague-Dawley
Parameters: regimen Daily Repeat, gender Male, age 6 weeks
Settings: in vivo, po, 100 mg/kg, route gavage, dose level High; for APTT / Bas / Eos / Fbg / Hb / Ht / Lym / MCH / MCHC / MCV / Mono / Neu / PT / Plat / RBC / Ret / WBC: tissue Blood; for KIDNEY_L / KIDNEY_R / KIDNEY_TOTAL: tissue Kidney; for LIVER: tissue Liver; for A/G / ALP / ALT / AST / BUN / CRE / Ca / Cl / DBIL / GLC / IP / K / LDH / Na / PL / RALB / TBIL / TC / TG / TP / gamma-GTP: tissue Plasma

`CCCc1cc(=O)[nH]c(=S)[nH]1` [PROPYLTHIOURACIL] was tested, and the TERMINAL_BW (72 h, time 3 day) was 209.7 g, the APTT (72 h, time 3 day) was 16 s and the Bas (72 h, time 3 day) was 0%. For the same compound, the Eos (72 h, time 3 day) was 0.8%, the Fbg (72 h, time 3 day) was 238.8 mg/dL and the Hb (72 h, time 3 day) was 13.2 g/dL. For the same compound, the Ht (72 h, time 3 day) was 39.6%, the Lym (72 h, time 3 day) was 80.6% and the MCH (72 h, time 3 day) was 22 pg. For the same compound, the MCHC (72 h, time 3 day) was 33.3%, the MCV (72 h, time 3 day) was 65.9 fL and the Mono (72 h, time 3 day) was 6.4%. It also gave a Neu (72 h, time 3 day) of 12.2%, a PT (72 h, time 3 day) of 12.1 s and a Plat (72 h, time 3 day) of 110 x10_4/uL. It also gave an RBC (72 h, time 3 day) of 601.4 x10_4/ul, a Ret (72 h, time 3 day) of 7.1% and a WBC (72 h, time 3 day) of 144 x10_2/uL. It also gave a KIDNEY_L (72 h, time 3 day) of 0.9 g, a KIDNEY_R (72 h, time 3 day) of 0.9 g and a KIDNEY_TOTAL (72 h, time 3 day) of 1.8 g. The LIVER (72 h, time 3 day) was 12.2 g, the A/G (72 h, time 3 day) was 1.7 and the ALP (72 h, time 3 day) was 870.8 IU/L. For the same compound, the ALT (72 h, time 3 day) was 36.4 IU/L, the AST (72 h, time 3 day) was 60.4 IU/L and the BUN (72 h, time 3 day) was 20.2 mg/dL. The CRE (72 h, time 3 day) was 0.5 mg/dL, the Ca (72 h, time 3 day) was 11.5 mg/dL and the Cl (72 h, time 3 day) was 105.4 meq/L. The DBIL (72 h, time 3 day) was 0.008 mg/dL, the GLC (72 h, time 3 day) was 191.6 mg/dL and the IP (72 h, time 3 day) was 7.1 mg/dL. It also gave a K (72 h, time 3 day) of 4.5 meq/L, an LDH (72 h, time 3 day) of 181.2 IU/L and a Na (72 h, time 3 day) of 138.6 meq/L. It also gave a PL (72 h, time 3 day) of 199.6 mg/dL, an RALB (72 h, time 3 day) of 3.8 g/dL and a TBIL (72 h, time 3 day) of 0.3 mg/dL. It also gave a TC (72 h, time 3 day) of 116.2 mg/dL, a TG (72 h, time 3 day) of 94.2 mg/dL and a TP (72 h, time 3 day) of 6.1 g/dL. It also gave a gamma-GTP (72 h, time 3 day) of 1 IU/L, a TERMINAL_BW ([…], time 7 day) of 223.8 g and a TERMINAL_BW ([…], time 14 day) of 241.1 g. The TERMINAL_BW ([…], time 28 day) was 232 g, the APTT ([…], time 7 day) was 15.8 s and the Bas ([…], time 7 day) was 0%. The Eos ([…], time 7 day) was 1%, the Fbg ([…], time 7 day) was 239.2 mg/dL and the Hb ([…], time 7 day) was 13.7 g/dL. The Ht ([…], time 7 day) was 41.4%, the Lym ([…], time 7 day) was 81.2% and the MCH ([…], time 7 day) was 20.9 pg. For the same compound, the MCHC ([…], time 7 day) was 33.1%, the MCV ([…], time 7 day) was 63.2 fL and the Mono ([…], time 7 day) was 5.4%. The Neu ([…], time 7 day) was 12.4%, the PT ([…], time 7 day) was 13 s and the Plat ([…], time 7 day) was 113.5 x10_4/uL. It also gave an RBC ([…], time 7 day) of 655.4 x10_4/ul, a Ret ([…], time 7 day) of 3.8% and a WBC ([…], time 7 day) of 123.8 x10_2/uL. It also gave an APTT ([…], time 14 day) of 17 s, a Bas ([…], time 14 day) of 0% and an Eos ([…], time 14 day) of 0%. It also gave a Fbg ([…], time 14 day) of 189.4 mg/dL, a Hb ([…], time 14 day) of 14 g/dL and a Ht ([…], time 14 day) of 41.9%. For the same compound, the Lym ([…], time 14 day) was 79.4%, the MCH ([…], time 14 day) was 20.3 pg and the MCHC ([…], time 14 day) was 33.3%. For the same compound, the MCV ([…], time 14 day) was 61.1 fL, the Mono ([…], time 14 day) was 6.2% and the Neu ([…], time 14 day) was 14.4%. It also gave a PT ([…], time 14 day) of 13.9 s, a Plat ([…], time 14 day) of 93.2 x10_4/uL and an RBC ([…], time 14 day) of 686.2 x10_4/ul. The Ret ([…], time 14 day) was 1.6%, the WBC ([…], time 14 day) was 99.7 x10_2/uL and the APTT ([…], time 28 day) was 15.3 s. The Bas ([…], time 28 day) was 0%, the Eos ([…], time 28 day) was 0.8% and the Fbg ([…], time 28 day) was 180.4 mg/dL. For the same compound, the Hb ([…], time 28 day) was 15.5 g/dL, the Ht ([…], time 28 day) was 45.8% and the Lym ([…], time 28 day) was 84.6%. For the same compound, the MCH ([…], time 28 day) was 19.6 pg, the MCHC ([…], time 28 day) was 33.8% and the MCV ([…], time 28 day) was 57.9 fL. For the same compound, the Mono ([…], time 28 day) was 4.8%, the Neu ([…], time 28 day) was 9.8% and the PT ([…], time 28 day) was 14.8 s. For the same compound, the Plat ([…], time 28 day) was 86 x10_4/uL, the RBC ([…], time 28 day) was 791.8 x10_4/ul and the Ret ([…], time 28 day) was 0.7%. The WBC ([…], time 28 day) was 66.5 x10_2/uL, the KIDNEY_L ([…], time 7 day) was 0.9 g and the KIDNEY_R ([…], time 7 day) was 0.9 g. The KIDNEY_TOTAL ([…], time 7 day) was 1.8 g, the KIDNEY_L ([…], time 14 day) was 0.9 g and the KIDNEY_R ([…], time 14 day) was 0.9 g. The KIDNEY_TOTAL ([…], time 14 day) was 1.9 g, the KIDNEY_L ([…], time 28 day) was 0.8 g and the KIDNEY_R ([…], time 28 day) was 0.8 g. The KIDNEY_TOTAL ([…], time 28 day) was 1.6 g, the LIVER ([…], time 7 day) was 12.7 g and the LIVER ([…], time 14 day) was 12 g. The LIVER ([…], time 28 day) was 9.8 g, the A/G ([…], time 7 day) was 1.8 and the ALP ([…], time 7 day) was 839.6 IU/L. The ALT ([…], time 7 day) was 29.6 IU/L, the AST ([…], time 7 day) was 57.8 IU/L and the BUN ([…], time 7 day) was 20.6 mg/dL. For the same compound, the CRE ([…], time 7 day) was 0.5 mg/dL, the Ca ([…], time 7 day) was 11.5 mg/dL and the Cl ([…], time 7 day) was 106.8 meq/L. The DBIL ([…], time 7 day) was 0.016 mg/dL, the GLC ([…], time 7 day) was 172 mg/dL and the IP ([…], time 7 day) was 6.8 mg/dL. It also gave a K ([…], time 7 day) of 4.5 meq/L, an LDH ([…], time 7 day) of 161.4 IU/L and a Na ([…], time 7 day) of 140.2 meq/L. It also gave a PL ([…], time 7 day) of 166.6 mg/dL, an RALB ([…], time 7 day) of 4.3 g/dL and a TBIL ([…], time 7 day) of 0.3 mg/dL. For the same compound, the TC ([…], time 7 day) was 101.6 mg/dL, the TG ([…], time 7 day) was 79.6 mg/dL and the TP ([…], time 7 day) was 6.7 g/dL. The gamma-GTP ([…], time 7 day) was 1.2 IU/L, the A/G ([…], time 14 day) was 1.8 and the ALP ([…], time 14 day) was 489.4 IU/L. The ALT ([…], time 14 day) was 27.8 IU/L, the AST ([…], time 14 day) was 56.4 IU/L and the BUN ([…], time 14 day) was 23.4 mg/dL. It also gave a CRE ([…], time 14 day) of 0.7 mg/dL, a Ca ([…], time 14 day) of 11.4 mg/dL and a Cl ([…], time 14 day) of 107.4 meq/L. The DBIL ([…], time 14 day) was 0.016 mg/dL, the GLC ([…], time 14 day) was 176.4 mg/dL and the IP ([…], time 14 day) was 6.3 mg/dL. For the same compound, the K ([…], time 14 day) was 4 meq/L, the LDH ([…], time 14 day) was 152.8 IU/L and the Na ([…], time 14 day) was 141.8 meq/L. For the same compound, the PL ([…], time 14 day) was 144.8 mg/dL, the RALB ([…], time 14 day) was 4.4 g/dL and the TBIL ([…], time 14 day) was 0.2 mg/dL. For the same compound, the TC ([…], time 14 day) was 94.2 mg/dL, the TG ([…], time 14 day) was 32.6 mg/dL and the TP ([…], time 14 day) was 7 g/dL. The gamma-GTP ([…], time 14 day) was 1.6 IU/L, the A/G ([…], time 28 day) was 2 and the ALP ([…], time 28 day) was 528 IU/L. It also gave an ALT ([…], time 28 day) of 34 IU/L, an AST ([…], time 28 day) of 65.4 IU/L and a BUN ([…], time 28 day) of 26.8 mg/dL. The CRE ([…], time 28 day) was 0.7 mg/dL, the Ca ([…], time 28 day) was 10.8 mg/dL and the Cl ([…], time 28 day) was 108 meq/L. The DBIL ([…], time 28 day) was 0.054 mg/dL, the GLC ([…], time 28 day) was 162 mg/dL and the IP ([…], time 28 day) was 5.5 mg/dL. It also gave a K ([…], time 28 day) of 4.1 meq/L, an LDH ([…], time 28 day) of 121.8 IU/L and a Na ([…], time 28 day) of 143.6 meq/L. It also gave a PL ([…], time 28 day) of 153 mg/dL, an RALB ([…], time 28 day) of 4.5 g/dL and a TBIL ([…], time 28 day) of 0.2 mg/dL. It also gave a TC ([…], time 28 day) of 101.2 mg/dL, a TG ([…], time 28 day) of 34.6 mg/dL and a TP ([…], time 28 day) of 6.8 g/dL. The gamma-GTP ([…], time 28 day) was 2.8 IU/L.
